Results on one compound are retold here after patent US20110319482A1, “NOVEL TREATMENTS” (priority 2008, published 2011).

Data set [1] can be described thus: clinical trials, oral administration to man: plasma pharmacokinetics. The class given is in vivo. As to conditions: human, oral compositions as described in Table 1, administered orally to man. From the text:
When taken during a migraine attack TMAX may be more variable and prolonged.

Another data set concerns migraine with aura. Put plainly: single centre, double-blind, randomised, placebo controlled crossover study of prophylaxis of migraine in patients with migraine with aura. As to conditions: 31 patients with migraine with aura, 20 or 40 mg po od, 12 week treatment period. Format: in vivo. On the procedure:
A single centre, double-blind, randomised, placebo controlled crossover study to evaluate the efficacy and tolerability of tonabersat in the prophylaxis of migraine in patients presenting with migraine with aura was conducted. Twelve week treatment period followed by a 4 week wash-out period before cross-over to 12 weeks treatment with the alternative trial medication. To investigate the efficacy of tonabersat compared to placebo in the reduction of the number of aura attacks and the number of migraine headache days in patients with migraine with aura. Following screening, patients were randomised to active or placebo treatment for 12 weeks. During the first two weeks of the treatment period, patients received treatment with tonabersat 20 mg (one tablet daily) or matching placebo. After two weeks, the dose was increased to tonabersat 40 mg per day (two tablets taken once daily [od]) with a similar increase in the number of placebo tablets taken. Depending on tolerability during the treatment period, the dose may have been reduced to 20 mg per day (or one placebo tablet) for the remainder of the treatment period. On completion of the first treatment period patients received placebo tablets (one tablet daily) for 4 weeks before starting the second treatment period when the alternative trial medication was administered. The design of the second period was the same as the first. […]

For `CC(=O)c1ccc2c(c1)[C@H](NC(=O)c1ccc(F)c(Cl)c1)[C@H](O)C(C)(C)O2` [tonabersat, cis-6-acetyl-4-(S)-(3-chloro-4-fluorobenzoylamino)-3,4-dihydro-2,2-dimethyl-2H-1-benzopyran-3-(S)-ol], the half-life in data set [1] (read-out: terminal elimination half life) lay in the range of 24 to 40 h. In addition, the Tmax in data set [1] (read-out: time to maximum plasma concentration (TMAX)) was 1 to 3 h. In addition, the “reduction in aura attacks compared to placebo” value in the data set with migraine with aura (p=0.01) is recorded as 50%. For the same compound, the “reduction in migraine headache days compared to placebo” value in the data set on migraine with aura (p=0.08) stood at 37.5%.
